Assay results taken from patent US20230094922A1, “METHODS OF THERAPEUTIC PROGNOSTICATION” (GENETIKAPLUS LTD., priority 2020, published 2023).

Test system: iPSC-derived cortical neurons
Test: Pre- and post-synaptic marker (Synapsin, PSD95) puncta and colocalization imaging analysis
Type: cell-based, human
Conditions: for intact synapses (colocalization of pre- and post-synaptic terminals), treated vs untreated: 7 days after treatment (Bupropion also 3 days)
Description: iPSC differentiation into neurons-iPSCs were seeded at a density of 3×10^6 cells/well on a hESC-qualified Matrigel pre-coated 6-well plate and incubated at 37° C., 5% CO2 overnight. Differentiation was initiated the following day (day 0) after verifying that 100% confluency was reached. Differentiation media was added daily according to the following order: […]7 (day 15 onward) similar to a previously published protocol developed by for rapid differentiation to cortical neurons. The components of the described media, Q1-7, are provided in Appendix 1. Cells were assessed for differentiation efficiency and cell death on a daily basis. On day 9, differentiated neurons were re-plated on either 96-well plates (destined for staining) or 12-well plates (destined for RNA extraction) that were coated with 15 μg/mL Poly-ornithine diluted in PBS (overnight incubation at 37° C.), followed by 1 μg/mL Laminin and 2 μg/mL Fibronectin diluted in PBS (overnight incubation at 37° C.): Neurons were first rinsed with pre-warmed PBS and 1 ml/well of Accutase was added for 35 minutes at 37° C., 5% CO2. DNAse1 (0.5 mg/mL) was then added for 10 additional minutes. 3 ml of pre-warmed Neurobasal media was added to each well and neurons were gently collected using a 5 ml […]. Wells were then verified for the presence of any remaining neurons. Neurons were spun down and resuspended in Q6 media. Neurons were seeded at a density of 150,000 cells/cm^2 placed back at 37° C. Following four hours of incubation, media was changed to Q6 media (150 μl per 96-well and 1 ml per 12-well). […] For dendritic arborization analysis, pre/post-synaptic markers and colocalization analysis; α-Syn, PSD95 and MAP2 primary antibodies were used. Following washes, fluorophore-coupled secondary antibodies were incubated in the blocking solution for 1 hour at room temperature. The cells were counter-stained with 4',6-diamidino-2-phenylindole (DAPI) for nuclei detection for 15 minutes at room temperature followed by washes with PBS. Imaging was performed using Nikon Spinning Disk Confocal microscope. For imaging of pre- and post-synaptic markers, images were acquired with a 100× objective in z-stacks. For dendritic arborization analysis, images were acquired with a 20× objective in z-stacks. For imaging of dendritic spines, during culture treatment described in materials and methods, cells were infected at Day 20 with human syn-GFP or mKate virus and stained for GFP or mKate. Cells were fixed as described at day 35 and stained with antibodies against GFP or mKate respectively. Images were acquired using the Nikon Confocal Alit with a 60× objective and a 2× digital zoom in z-stacks and using the Nikon spinning disk Microscope with a 100× objective in z-stacks. Neuronal and synaptic morphology was assessed using the Neurolucida software, pre- and post-synaptic marker analysis was performed using CellProfiler and total dendritic length was measured using Fiji software. Immunohistochemical examination was carried out on the induced neuronal cells.

## CNCCC=C1c2ccccc2CCc2ccccc21 [Nortriptyline, 1-Propanamine, 3-(10,11-dihydro-5H-dibenzo[a,d]cyclohepten-5-ylidene)-N-methyl-]
After treatment
  density of post-synaptic terminals (PSD95 puncta), responders vs non-responders: increase in density was also present
  intact synapses, responders vs non-responders: significantly more intact synapses
Neurons from non-responders
  intact synapses (colocalization of pre- and post-synaptic terminals), treated vs untreated: no change or even a slight decrease
Neurons from responders, 7 days after treatment
  density of post-synaptic terminals (distance between PSD95 puncta), after vs before treatment: significant increase in density
Neurons from responders
  intact synapses (colocalization of pre- and post-synaptic terminals), treated vs untreated: significantly upregulated
